# From patent US11077126B2 (priority 2017, dated 2021)
# Like-named read-outs stand apart in the source and are kept apart here.
# Tested on: mouse bone marrow polychromatic erythrocytes
# Conditions: mouse, in vivo; for Number of Micronuclei / P/N / P/N Ratio: po
# Method: It is the object to test the mutagenic potential of drugs on mammalian somatic cells, and provide a basis for clinical drug use.
# An appropriate amount of 0.5% sodium carboxymethyl cellulose solution was added to prepare a suspension, and the suspension was stored in a refrigerator at 4° C. The negative control was an equal amount of 0.5% sodium carboxymethylcellulose solution. The positive control was prepared as follows: an appropriate amount of cyclophosphamide used for injection was weighed, and was dissolved in normal saline at the time of use to prepare 60 mg/kg of solution.
# 6 mice per group. The doses, number of administrations, and bone marrow sampling time are selected in the pre-test.
# The dose is reduced by ½ LD50 as the standard, and the number of administrations is one time. According to the pre-test results, the bone marrow sampling time is to sample 24 hours after administration.
# At least three dose groups, respectively: 2,000 mg/kg, 1,000 mg/kg, 500 mg/kg
# The number of administrations: one-time oral administration.
# Oral (Intragastric) administration.
# 2.4.3 Bone marrow sampling time: 24 hours after administration.
# The mice were sacrificed by cervical dislocation. Then the sternums were taken to remove the muscles thereon and the attachments were wiped with a gauze. Direct smear of bone marrow was used: the sternums were cut to expose the medullary cavity, and bone marrow was extruded and mixed well with a drop of calf serum on a slide beforehand as a push piece. After being dried, the slide was fixed in methanol for 10 minutes, and then after it was dried, it was then subjected to Giemsa staining. Each mouse was microscopically examined for about 1,000 polychromatic erythrocytes with intact contours of erythrocytes, and the frequency of occurrence of micronuclei and the ratio of polychromatic erythrocytes to erythrocytes were counted.
substance,measurement,setting,value
Carrimycin,conclusion of micronucleus test: chromosomal cleavage,,is not a chromosomal cleavage agent
same,conclusion of micronucleus test: effect on the bone marrow,,no inhibitory effect on the bone marrow
same,micronucleus rate of polychromatic erythrocytes compared with the negative control group,,do not have significant increase
same,Number of Micronuclei,500 mg/kg,18
same,P/N,500 mg/kg,0.34
same,P/N Ratio,500 mg/kg,0.34
same,Number of Micronuclei,1000 mg/kg,16
same,P/N,1000 mg/kg,0.33
same,P/N Ratio,1000 mg/kg,0.33
same,Number of Micronuclei,2000 mg/kg,21
same,P/N,2000 mg/kg,0.38
same,P/N Ratio,2000 mg/kg,0.38
